Reference: patent publication US20060264419A1 (priority 2003, published 2006)
pIC50: −log10 of the molar value.

Assays:
5-HT2A receptors = 5-HT2A receptors (Rattus norvegicus, UniProt P14842); assay: in-vitro affinity to 5-HT2A receptors, displacement of [3H]ketanserine (Example A1); type: binding; settings: read-out: HT2A IC50
From the text: The 5-HT2A receptors are exposed both to [^3H]ketanserine (a substance which is known for its affinity to the receptor) and also to the test compound. The decrease in the affinity of [^3H]ketanserine to the receptor is an indication of the affinity of the test substance to the 5-HT2A receptor.

5 HT2C receptor = target: T1, 5 HT2C receptor (Homo sapiens, UniProt P28335); assay: affinity to the 5 HT2C receptor; type: binding
T1 sequence (P28335 33-458): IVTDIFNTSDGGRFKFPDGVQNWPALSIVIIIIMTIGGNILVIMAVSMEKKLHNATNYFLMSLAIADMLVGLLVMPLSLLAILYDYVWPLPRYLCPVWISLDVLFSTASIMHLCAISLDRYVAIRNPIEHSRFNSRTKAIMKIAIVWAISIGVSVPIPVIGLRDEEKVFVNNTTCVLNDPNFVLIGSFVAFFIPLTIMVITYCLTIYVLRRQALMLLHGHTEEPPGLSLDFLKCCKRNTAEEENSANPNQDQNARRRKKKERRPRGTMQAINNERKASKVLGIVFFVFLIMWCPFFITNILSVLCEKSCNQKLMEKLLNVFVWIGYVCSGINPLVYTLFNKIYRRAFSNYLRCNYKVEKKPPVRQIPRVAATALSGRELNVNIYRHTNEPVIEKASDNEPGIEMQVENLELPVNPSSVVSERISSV

Chain of 5-HT2A receptors (P14842 whole entry): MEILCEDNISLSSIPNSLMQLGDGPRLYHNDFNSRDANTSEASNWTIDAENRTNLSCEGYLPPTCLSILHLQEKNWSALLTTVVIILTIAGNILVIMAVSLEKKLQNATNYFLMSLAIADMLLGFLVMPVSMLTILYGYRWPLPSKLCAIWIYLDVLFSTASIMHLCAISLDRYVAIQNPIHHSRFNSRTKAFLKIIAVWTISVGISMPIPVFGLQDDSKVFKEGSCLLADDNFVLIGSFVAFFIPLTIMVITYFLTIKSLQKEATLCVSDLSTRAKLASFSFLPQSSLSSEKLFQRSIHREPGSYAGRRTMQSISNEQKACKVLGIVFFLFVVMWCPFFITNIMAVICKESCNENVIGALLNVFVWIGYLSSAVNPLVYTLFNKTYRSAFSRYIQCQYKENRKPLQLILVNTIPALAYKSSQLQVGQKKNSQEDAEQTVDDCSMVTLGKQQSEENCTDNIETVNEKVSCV

## CN(C)CCc1cnn(-c2ccc(-c3ccc(F)cc3)cc2)c1-c1ccccc1F [Example 890, {2-[1-(4′-Fluorobiphenyl-4-yl)-5-(2-fluoro-phenyl)-1H-pyrazol-4-yl]ethyl}dimethylamine]
5-HT2A receptors
  pIC50: 8.82
5 HT2C receptor
  pIC50: 7.56

## CN1CCN(Cc2cnn(-c3ccc(-c4ccsc4)cc3)c2-c2ccco2)CC1 [Example 891, 1-[5-Furan-2-yl-1-(4-thiophen-3-ylphenyl)-1H-pyrazol-4-ylmethyl]-4-methylpiperazine]
5-HT2A receptors
  pIC50: 8.35
5 HT2C receptor
  pIC50: 6.68

## OCCNCc1cnn(-c2ccc(-c3ccccc3)cc2)c1-c1ccccc1F [Example 892, 2-{[1-Biphenyl-4-yl-5-(2-fluorophenyl)-1H-pyrazol-4-ylmethyl]amino}ethanol]
5-HT2A receptors
  pIC50: 8.28
5 HT2C receptor
  pIC50: 6.38

## CN1CCCN(Cc2cnn(-c3ccc(-c4ccccc4)cc3)c2-c2ccccc2F)CC1 [Example 893, 1-[1-Biphenyl-4-yl-5-(2-fluorophenyl)-1H-pyrazol-4-ylmethyl]-4-methyl-[1,4]diazepam]
5-HT2A receptors
  pIC50: 8.19
5 HT2C receptor
  pIC50: 6.64

## NCCNCc1cnn(-c2ccc(-c3ccccc3)cc2)c1-c1ccccc1F [Example 894, N-[1-Biphenyl-4-yl-5-(2-fluorophenyl)-1H-pyrazol-4-ylmethyl]ethane-1,2-diamine]
5-HT2A receptors
  pIC50: 8.19
5 HT2C receptor
  pIC50: 6.35

## COc1ccc(-c2ccc(-n3ncc(CN4CCN(C)CC4)c3-c3ccccc3F)cc2)cc1 [Example 895, 1-[5-(2-Fluorophenyl)-1-(4′-methoxy-biphenyl-4-yl)-1H-pyrazol-4-ylmethyl]-4-methyl-piperazine]
5-HT2A receptors
  pIC50: 8.12
5 HT2C receptor
  pIC50: 5.94

## CCNC(=O)CN1CCN(Cc2cnn(-c3ccc(-c4ccccc4)cc3)c2-c2ccccc2F)CC1 [Example 1018, 2-{4-[1-Biphenyl-4-yl-5-(2-fluoro-phenyl)-1H-pyrazol-4-ylmethyl]piperazin-1-yl}-N-ethyl-acetamide]
5-HT2A receptors
  pIC50: 6.64

## Cc1ccccc1-c1ccc(-n2ncc(CN3CCN(C)CC3)c2-c2ccccc2F)cc1 [Example 1020, 1-[5-(2-Fluorophenyl)-1-(2′-methyl-biphenyl-4-yl)-1H-pyrazol-4-ylmethyl]-4-methylpiperazine]
5-HT2A receptors
  pIC50: 6.64

## Cc1cc(CNCc2cnn(-c3ccc(-c4ccccc4)cc3)c2-c2ccccc2)no1 [Example 1023, (1-Biphenyl-4-yl-5-phenyl-1H-pyrazol-4-yl-methyl)-(5-methylisoxazol-3-ylmethyl)amine]
5-HT2A receptors
  pIC50: 6.62

## CCN(CC)CC1CCCCN1Cc1cnn(-c2ccc(-c3ccccc3)cc2)c1-c1ccccc1F (stereo not shown) [Example 1028, {1-[1-Biphenyl-4-yl-5-(2-fluorophenyl)-1H-pyrazol-4-ylmethyl]piperidin-2-ylmethyl}-diethylamine]
5-HT2A receptors
  pIC50: 6.57

## O=C(NCCO)C1CCN(Cc2cnn(-c3ccc(-c4ccccc4)cc3)c2-c2ccccc2F)CC1 [Example 1030, N-(2-Hydroxyethyl)-1-[1-biphenyl-4-yl-5-(2-fluorophenyl)-1H-pyrazol-4-ylmethyl]piperidine-4-carboxamide]
5-HT2A receptors
  pIC50: 6.57

## Fc1ccccc1-c1c(CN2CCN3CCc4ccccc4C3C2)cnn1-c1ccc(-c2ccccc2)cc1 (stereo not shown) [Example 1031, 2-[1-Biphenyl-4-yl-5-(2-fluorophenyl)-1H-pyrazol-4-ylmethyl]-1,3,4,6,7,11b-hexahydro-2H-pyrazino[2,1-a]isoquinoline]
5-HT2A receptors
  pIC50: 6.55

## OCCN1CCN(Cc2cnn(-c3ccc(-c4ccccc4)cc3)c2-c2ccccc2F)CC1 [Example 1032, 2-{4-[1-Biphenyl-4-yl-5-(2-fluoro-phenyl)-1H-pyrazol-4-ylmethyl]piperazin-1-yl}ethanol]
5-HT2A receptors
  pIC50: 6.55

## CCC1(O)CCN(Cc2cnn(-c3ccc(-c4ccccc4)cc3)c2-c2ccccc2F)CC1 [Example 1033, 1-[1-Biphenyl-4-yl-5-(2-fluorophenyl)-1H-pyrazol-4-ylmethyl]-4-ethylpiperidin-4-ol]
5-HT2A receptors
  pIC50: 6.55

## N#CCNCc1cnn(-c2ccc(-c3ccccc3)cc2)c1-c1ccccc1F [Example 1034, {[1-Biphenyl-4-yl-5-(2-fluorophenyl)-1H-pyrazol-4-ylmethyl]amino}acetonitrile]
5-HT2A receptors
  pIC50: 6.55

## Fc1ccccc1-c1c(CNC2CCN(Cc3ccccc3)C2)cnn1-c1ccc(-c2ccccc2)cc1 (stereo not shown) [Example 1036, (1-Benzylpyrrolidin-3-yl)-[1-biphenyl-4-yl-5-(2-fluorophenyl)-1H-pyrazol-4-ylmethyl]amine]
5-HT2A receptors
  pIC50: 6.51

## O=C(CN1CCN(Cc2cnn(-c3ccc(-c4ccccc4)cc3)c2-c2ccccc2F)CC1)N1CCCC1 [Example 1038, 2-{4-[1-Biphenyl-4-yl-5-(2-fluoro-phenyl)-1H-pyrazol-4-ylmethyl]piperazin-1-yl}-1-pyrrolidin-1-ylethanone]
5-HT2A receptors
  pIC50: 6.51

## CCN(Cc1ccccc1)Cc1cnn(-c2ccc(-c3ccccc3)cc2)c1-c1ccccc1F [Example 1039, Benzyl-[1-biphenyl-4-yl-5-(2-fluoro-phenyl)-1H-pyrazol-4-ylmethyl]ethylamine]
5-HT2A receptors
  pIC50: 6.49

## COc1ccc(-c2c(CN3CCN(C(C)C)CC3)cnn2-c2ccc(-c3ccc(F)cc3)cc2)cc1 [Example 1040, 1-[1-(4′-Fluorobiphenyl-4-yl)-5-(4-methoxy-phenyl)-1H-pyrazol-4-ylmethyl]-4-isopropyl-piperazine]
5-HT2A receptors
  pIC50: 6.49

## Fc1ccccc1-c1c(CNC2C3CNCC32)cnn1-c1ccc(-c2ccccc2)cc1 (stereo not shown) [Example 1041, (3-Azabicyclo[3.1.0]hex-6-yl)-[1-biphenyl-4-yl-5-(2-fluorophenyl)-1H-pyrazol-4-ylmethyl]-amine]
5-HT2A receptors
  pIC50: 6.49

## NC(=O)CN1CCN(Cc2cnn(-c3ccc(-c4ccccc4)cc3)c2-c2ccccc2F)CC1 [Example 1042, 2-{4-[1-Biphenyl-4-yl-5-(2-fluoro-phenyl)-1H-pyrazol-4-ylmethyl]piperazin-1-yl}acetamide]
5-HT2A receptors
  pIC50: 6.44

## O=C(c1cnn(-c2ccc(-c3ccccc3)cc2)c1-c1ccccc1F)N1CCOCC1 [Example 1043, 1-[1-Biphenyl-4-yl-5-(2-fluorophenyl)-1H-pyrazol-4-yl]-1-morpholin-4-ylmethanone]
5-HT2A receptors
  pIC50: 6.44

## Fc1ccc(F)c(-c2ccc(-n3ncc(CNCC4CCCO4)c3-c3ccccc3F)cc2)c1 (stereo not shown) [Example 1044, [1-(2′,5′-Difluorobiphenyl-4-yl)-5-(2-fluoro-phenyl)-1H-pyrazol-4-ylmethyl](tetrahydro-furan-2-ylmethyl)amine]
5-HT2A receptors
  pIC50: 6.43

## OCC(Cc1cnc[nH]1)NCc1cnn(-c2ccc(-c3ccccc3)cc2)c1-c1ccccc1F (stereo not shown) [Example 1045, 2-{[1-Biphenyl-4-yl-5-(2-fluoro-phenyl)-1H-pyrazol-4-ylmethyl]amino}-3-(3H-imidazol-4-yl)propan-1-ol]
5-HT2A receptors
  pIC50: 6.43

## Cc1cnc(NCc2cnn(-c3ccc(-c4ccccc4)cc3)c2-c2ccccc2F)s1 [Example 1046, [1-Biphenyl-4-yl-5-(2-fluorophenyl)-1H-pyrazol-4-ylmethyl]-(5-methylthiazol-2-yl)amine]
5-HT2A receptors
  pIC50: 6.43

## Fc1ccccc1-c1c(CN2CCN(Cc3ccsc3)CC2)cnn1-c1ccc(-c2ccccc2)cc1 [Example 1047, 1-[1-Biphenyl-4-yl-5-(2-fluorophenyl)-1H-pyrazol-4-ylmethyl]-4-thiophen-3-ylmethyl-piperazine]
5-HT2A receptors
  pIC50: 6.42

## OCc1cnn(-c2ccc(-c3ccc(F)cc3)cc2)c1-c1ccccc1Cl [Example 1048, [5-(2-Chlorophenyl)-1-(4′-fluoro-biphenyl-4-yl)-1H-pyrazol-4-yl]methanol]
5-HT2A receptors
  pIC50: 6.42

## CN1CCN(Cc2cnn(-c3cccc(-c4ccc(Cl)cc4)c3)c2-c2ccccc2F)CC1 [Example 1049, 1-[1-(4′-Chlorobiphenyl-3-yl)-5-(2-fluoro-phenyl)-1H-pyrazol-4-ylmethyl]-4-methyl-piperazine]
5-HT2A receptors
  pIC50: 6.41

## OC1CCN(Cc2cnn(-c3ccc(C(F)(F)F)cn3)c2-c2ccccc2F)C1 (stereo not shown) [Example 1050, 1-[5-(2-Fluorophenyl)-1-(5-trifluoro-methylpyridin-2-yl)-1H-pyrazol-4-ylmethyl]pyrrolidin-3-ol]
5-HT2A receptors
  pIC50: 6.41

## CN1CCN(Cc2cnn(-c3ccc(-c4ccc(F)cc4)cc3)c2-c2cc(Cl)cc(Cl)c2)CC1 [Example 1052, 1-[5-(3,5-Dichlorophenyl)-1-(4′-fluoro-biphenyl-4-yl)-1H-pyrazol-4-ylmethyl]-4-methyl-piperazine]
5-HT2A receptors
  pIC50: 6.40

## OC1CCN(Cc2cnn(-c3ccc(-c4ccccc4)cc3)c2-c2ccccc2F)CC1 [Example 1053, 1-[1-Biphenyl-4-yl-5-(2-fluorophenyl)-1H-pyrazol-4-ylmethyl]piperidin-4-ol]
5-HT2A receptors
  pIC50: 6.37

## CC(C)(C)OC(=O)N1CCC(NCc2cnn(-c3ccc(-c4ccccc4)cc3)c2-c2ccccc2F)C1 (stereo not shown) [Example 1056, tert-Butyl 3-{[1-biphenyl-4-yl-5-(2-fluoro-phenyl)-1H-pyrazol-4-ylmethyl]amino}pyrrolidine-1-carboxylate]
5-HT2A receptors
  pIC50: 6.34

## Fc1ccccc1-c1c(CNC2CCNCC2)cnn1-c1ccc(-c2ccccc2)cc1 [Example 1058, [1-Biphenyl-4-yl-5-(2-fluorophenyl)-1H-pyrazol-4-ylmethyl]piperidin-4-ylamine]
5-HT2A receptors
  pIC50: 6.33

## OCCc1cnn(-c2ccc(-c3ccccc3)cc2)c1-c1ccccc1F [Example 1059, 2-[1-Biphenyl-4-yl-5-(2-fluoro-phenyl)-1H-pyrazol-4-yl]ethanol]
5-HT2A receptors
  pIC50: 6.33
